From patent EP0862417B1, “PHARMACEUTICAL COMPOSITION FOR TOPICAL APPLICATION” (Reckitt Benckiser Healthcare (UK) Limited, priority 1995, dated 1997)

Assay: Supersaturation potential of a triclosan solution (calculated from solubilities)
Type: physicochemical
Conditions: skin pH e.g. pH 5.5; 200ppm triclosan solution at pH 10 as starting composition
Experimental: The supersaturation potential of a solution at pH 10 containing 200ppm triclosan was calculated by dividing the concentration of triclosan in that solution by the concentration of triclosan in the solutions at lower pHs.

Oc1cc(Cl)ccc1Oc1ccc(Cl)cc1Cl [triclosan]
degree of supersaturation achievable at a skin pH: 30 X
